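Cultured in 96-well plates, cells were exposed to test compound for 48 hours across five concentrations. GI50 is the concentration that inhibits growth by half. The concentration for full growth arrest is given as TGI.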

Among the test systems are RXF 393 renal; HOP-62 NSCLC; SN12C renal; HCC-2998 colon; CCRF-CEM leukemia; DU-145 prostate; SW-620 colon; SF-539 CNS; KM12 colon; MALME-3M melanoma.
Common to all, as to assay: inhibition of tumour cell growth, NCI panel, 48 h

For `CCCCc1ccc2nc(NC(=O)OC)[nH]c2c1`, the GI50 is 0.0929 µM in the experiment with RXF 393 renal; 0.126 µM in the experiment with HOP-62 NSCLC; 0.0832 µM in the experiment on SN12C renal; 0.0966 µM with HCC-2998 colon; 0.0342 µM in the experiment on CCRF-CEM leukemia; 0.0406 µM in the experiment on DU-145 prostate. Also, the GI50 in the experiment on SW-620 colon is 0.0325 µM; in the experiment with SF-539 CNS it was 0.0366 µM; in the experiment with KM12 colon, 0.0337 µM; in the experiment with MALME-3M melanoma it was 0.0526 µM. Moreover, the TGI was 20.1 µM in the experiment with RXF 393 renal; 26.6 µM in the experiment on HOP-62 NSCLC; more than 60.4 µM in the experiment with SN12C renal; 3.4 µM in the experiment with HCC-2998 colon; 0.278 µM in the experiment on DU-145 prostate; more than 60.5 µM in the experiment on SW-620 colon. In addition, the TGI in the experiment with SF-539 CNS turned out to be 0.294 µM; with KM12 colon, 1.3 µM; in the experiment on MALME-3M melanoma, 23.7 µM.
Take `COc1ccc(C(=O)/C=C/c2ccc(Cl)cc2)cc1S(N)(=O)=O`: the GI50 with RXF 393 renal was 1.98 µM; in the experiment on HOP-62 NSCLC it was 2.51 µM; in the experiment on SN12C renal, 2.72 µM; in the experiment on HCC-2998 colon, 1.78 µM; in the experiment on CCRF-CEM leukemia it was 3.35 µM; in the experiment on DU-145 prostate, 3.43 µM. In addition, the GI50 in the experiment with SW-620 colon was 1.76 µM; in the experiment on SF-539 CNS, 1.6 µM; with KM12 colon it was 1.73 µM; with MALME-3M melanoma, 5.89 µM. Further, the TGI in the experiment on RXF 393 renal worked out at 3.97 µM; in the experiment with HOP-62 NSCLC, 8.62 µM; with SN12C renal, 8.4 µM; with HCC-2998 colon, 3.65 µM; in the experiment with CCRF-CEM leukemia it was 9.35 µM; in the experiment on DU-145 prostate it was 13.2 µM. Further, the TGI in the experiment on SW-620 colon is 3.85 µM; in the experiment with SF-539 CNS, 3.3 µM; in the experiment on KM12 colon, 3.78 µM; with MALME-3M melanoma, 20.2 µM.
Consider `Cc1nc2c(cnn2-c2ccnc3c(C(F)(F)F)cccc23)c(=O)o1`, for which the GI50 in the experiment on RXF 393 renal, in the experiment with HOP-62 NSCLC, in the experiment with SN12C renal, with HCC-2998 colon, in the experiment on CCRF-CEM leukemia and in the experiment on DU-145 prostate was more than 100 µM throughout. The GI50 in the experiment on SW-620 colon, with SF-539 CNS, in the experiment with KM12 colon and with MALME-3M melanoma was more than 100 µM throughout. Moreover, the TGI in the experiment with RXF 393 renal, in the experiment with HOP-62 NSCLC, with SN12C renal, with HCC-2998 colon, with CCRF-CEM leukemia and in the experiment on DU-145 prostate was more than 100 µM each time. Besides, the TGI in the experiment with SW-620 colon, with SF-539 CNS, with KM12 colon and with MALME-3M melanoma was more than 100 µM each time.
`COc1ccc(CN2CCc3c(Cl)nc(N)nc3C2=O)c(OC)c1`: the GI50 was 22.7 µM in the experiment on RXF 393 renal; 25.7 µM with HOP-62 NSCLC; 14.9 µM in the experiment with SN12C renal; 17.3 µM in the experiment with HCC-2998 colon; 17 µM in the experiment with CCRF-CEM leukemia; 18.2 µM in the experiment on DU-145 prostate. Besides, the GI50 with SW-620 colon is 13.6 µM; with SF-539 CNS it was 15.8 µM; with KM12 colon it was 14.4 µM; with MALME-3M melanoma, 15.8 µM. For the same molecule, the TGI was 52.9 µM in the experiment with RXF 393 renal; 63.9 µM with HOP-62 NSCLC; 31.5 µM in the experiment on SN12C renal; 31.6 µM with HCC-2998 colon; 56.6 µM with CCRF-CEM leukemia; 40.3 µM with DU-145 prostate. Also, the TGI in the experiment with SW-620 colon stood at 28.1 µM; in the experiment with SF-539 CNS, 31.7 µM; with KM12 colon it was 28.4 µM; in the experiment with MALME-3M melanoma, 44.2 µM.
On to `CC(=O)O[C@@H]1C=CC(=O)C2(CC(=O)O[C@@H]2/C=C(\C)CCC=C(C)C)C1` (some centres undefined), for which the GI50 was 0.185 µM in the experiment with RXF 393 renal; 1.36 µM in the experiment on HOP-62 NSCLC; 0.997 µM with SN12C renal; 0.601 µM with HCC-2998 colon; 0.163 µM in the experiment with CCRF-CEM leukemia; 0.633 µM in the experiment on DU-145 prostate. The GI50 is 0.436 µM with SW-620 colon, 0.591 µM in the experiment with SF-539 CNS and 1.3 µM in the experiment on KM12 colon. The TGI in the experiment with RXF 393 renal stood at 0.962 µM; with HOP-62 NSCLC it was 3.4 µM; with SN12C renal it was 2.27 µM; with HCC-2998 colon it was 1.99 µM; in the experiment on CCRF-CEM leukemia, 0.543 µM; in the experiment with DU-145 prostate, 2.38 µM. In addition, the TGI was 1.44 µM in the experiment with SF-539 CNS and 4.16 µM with KM12 colon.
With `NC(=O)C/C=C/CC(N)=O`, the TGI with RXF 393 renal, in the experiment on HOP-62 NSCLC, in the experiment with SN12C renal, in the experiment with HCC-2998 colon, in the experiment on CCRF-CEM leukemia and in the experiment on DU-145 prostate was more than 100 µM in each case. In addition, the TGI with SW-620 colon, with SF-539 CNS, in the experiment with KM12 colon and with MALME-3M melanoma was more than 100 µM each time.
`CCN1CCC(C(=O)Nc2n[nH]c3nnc(-c4cccc(F)c4F)cc23)CC1`: the GI50 was 0.403 µM in the experiment on RXF 393 renal; 7.62 µM in the experiment with HOP-62 NSCLC; 9.49 µM with SN12C renal; 16 µM in the experiment with HCC-2998 colon; 6.75 µM with CCRF-CEM leukemia; 10.3 µM in the experiment on DU-145 prostate. Besides, the GI50 with SW-620 colon is 10.4 µM; in the experiment with SF-539 CNS, 3.98 µM; in the experiment with KM12 colon, 6.1 µM; in the experiment with MALME-3M melanoma, more than 22.6 µM. In addition, the TGI was 5.78 µM in the experiment on RXF 393 renal; more than 19.3 µM in the experiment with HOP-62 NSCLC; more than 25 µM in the experiment on SN12C renal; more than 25 µM in the experiment on HCC-2998 colon; more than 25 µM with CCRF-CEM leukemia; 24.6 µM in the experiment on DU-145 prostate. In addition, the TGI was more than 25 µM with SW-620 colon, 18.3 µM in the experiment on SF-539 CNS, more than 18.2 µM with KM12 colon and more than 25 µM in the experiment on MALME-3M melanoma.
For `CCN(CC)CCn1c(=N)n(CC(O)c2ccc(Cl)c(Cl)c2)c2ccccc21` (centres undefined), the GI50 in the experiment with RXF 393 renal was 2.8 µM; with HOP-62 NSCLC, 11.8 µM; in the experiment with SN12C renal, 8.79 µM; with HCC-2998 colon, 2.34 µM; in the experiment on DU-145 prostate, 13.9 µM; in the experiment with SW-620 colon, 11 µM. The GI50 is 2.86 µM in the experiment on SF-539 CNS, 9.86 µM with KM12 colon and 2.23 µM in the experiment on MALME-3M melanoma. In addition, the TGI turned out to be 10.9 µM in the experiment with RXF 393 renal; 24.8 µM in the experiment with HOP-62 NSCLC; 24.2 µM with SN12C renal; 5.3 µM with HCC-2998 colon; 26.8 µM with DU-145 prostate; 24.8 µM in the experiment with SW-620 colon. For the same molecule, the figures for the TGI in the experiment on SF-539 CNS, in the experiment on KM12 colon and with MALME-3M melanoma were 10.1 µM, 22.2 µM and 4.44 µM, respectively.

The values are drawn from PubChem BioAssay (NCI).
